# Assay results: patent publication US20170247366A1, “SUBSTITUTED 4-ALKOXYPICOLINAMIDE ANALOGS AS MGLUR5 NEGATIVE ALLOSTERIC MODULATORS AND METHODS OF MAKING AND USING THE SAME” (VANDERBILT UNIVERSITY, priority 2014, published 2017)
# Biological target: T1, rat mGluR5 (Rattus norvegicus, UniProt P31424)
# T1 construct: expressed in transfected cells
# Experiment: mGluR5 calcium flux assay in HEK 293A cells, negative allosteric modulation of glutamate EC80 response
# Format: cell-based
# Conditions: HEK cells transfected with rat mGluR5; glutamate EC80; ± is standard error of at least three experiments
# Procedure: HEK 293A cells stably expressing either rat or human mGluR5 were plated in black-walled, clear-bottomed, poly-D-lysine coated 384-well plates in 20 μL of assay medium (DMEM containing 10% dialyzed FBS, 20 mM HEPES, 100 units/mL penicillin/streptomycin plus 250 ng/mL Fungizone, and 1 mM sodium pyruvate) at a density of 20K cells/well. The cells were grown overnight at 37° C. in the presence of 5% CO2. The next day, medium was removed and the cells incubated with 20 μL of 2.3 µM Fluo-4, AM prepared as a 2.3 mM stock in DMSO and mixed in a 1:1 ratio with 10% (w/v) pluronic acid F-127 and diluted in assay buffer (Hank's balanced salt solution, 20 mM HEPES, and 2.5 mM probenecid) for 45 minutes at 37° C. Dye was removed, 20 μL of assay buffer was added, and the plate was incubated for 5 minutes at room temperature.
# Ca^2+ flux was measured using the Functional Drug Screening System (FDSS7000, Hamamatsu, Japan). After establishment of a fluorescence baseline for about 3 seconds, the compounds of the present invention were added to the cells, and the response in cells was measured. 2.3 minutes later an EC20 concentration of the mGluR5 receptor agonist glutamate was added to the cells, and the response of the cells was measured for 1.9 minutes; an EC80 concentration of agonist was added and readings taken for an additional 1.7 minutes. All test compounds were dissolved and diluted to a concentration of 10 mM in 100% DMSO. Compounds were then serially diluted 1:3 in DMSO into 10 point concentration response curves, transferred to daughter plates, and further diluted into assay buffer to a 2× stock. Calcium fluorescence measures were recorded as fold over basal fluorescence; raw data was then normalized to the maximal response to glutamate. Antagonism of the agonist response of the mGluR5 receptor in the present invention was observed as a decrease in response to nearly maximal concentrations of glutamate in the presence of compound compared to the response to glutamate in the absence of compound.
# The raw data file containing all time points was used as the data source in the analysis template. This was saved by the FDSS as a tab-delimited text file. Data were normalized using a static ratio function (F/F0) for each measurement of the total 360 values per well divided by each well's initial value. Data were then reduced to peak amplitudes (Max−Initial Min) using a time range that starts approximately 3 seconds prior to the glutamate EC20/EC80 addition and continues for approximately 90-120 seconds. This is sufficient time to capture the peak amplitude of the cellular calcium response. Individual amplitudes were expressed as % EMax by multiplying each amplitude by 100 and then dividing the product by the mean of the amplitudes derived from the glutamate ECMax-treated wells. IC50 values for test compounds were generated by fitting the normalized values versus the log of the test compound concentration (in mol/L) using a 4 parameter logistic equation where none of the parameters were fixed. Each of the three values collected at each concentration of test compound were weighted evenly.
# For NAMs with a CRC that plateaus above 10% Glu Max, the IC50 values are reported, the compound is designated a “partial NAM” and the % Glu Max is reported. […] Compounds without measurable activity are designated as “>30,000 nM” since the top concentration of compound tested in the assay is 30 µM. Exemplary data are provided in Tables 1 and 2 below.
# Table 1 below lists specific compounds, experimentally determined molecular mass, and mGluR5 activity determined in a cell-based assay. The mGluR5 activity was determined using the metabotropic glutamate receptor activity assays in human embryonic kidney cells as described herein, wherein the human embryonic kidney cells were transfected with rat mGluR5. The mGluR5 activity data for some compounds are shown as the average of at least three experiments with the standard error in these cases. […]
# T1 sequence (P31424 21-1203): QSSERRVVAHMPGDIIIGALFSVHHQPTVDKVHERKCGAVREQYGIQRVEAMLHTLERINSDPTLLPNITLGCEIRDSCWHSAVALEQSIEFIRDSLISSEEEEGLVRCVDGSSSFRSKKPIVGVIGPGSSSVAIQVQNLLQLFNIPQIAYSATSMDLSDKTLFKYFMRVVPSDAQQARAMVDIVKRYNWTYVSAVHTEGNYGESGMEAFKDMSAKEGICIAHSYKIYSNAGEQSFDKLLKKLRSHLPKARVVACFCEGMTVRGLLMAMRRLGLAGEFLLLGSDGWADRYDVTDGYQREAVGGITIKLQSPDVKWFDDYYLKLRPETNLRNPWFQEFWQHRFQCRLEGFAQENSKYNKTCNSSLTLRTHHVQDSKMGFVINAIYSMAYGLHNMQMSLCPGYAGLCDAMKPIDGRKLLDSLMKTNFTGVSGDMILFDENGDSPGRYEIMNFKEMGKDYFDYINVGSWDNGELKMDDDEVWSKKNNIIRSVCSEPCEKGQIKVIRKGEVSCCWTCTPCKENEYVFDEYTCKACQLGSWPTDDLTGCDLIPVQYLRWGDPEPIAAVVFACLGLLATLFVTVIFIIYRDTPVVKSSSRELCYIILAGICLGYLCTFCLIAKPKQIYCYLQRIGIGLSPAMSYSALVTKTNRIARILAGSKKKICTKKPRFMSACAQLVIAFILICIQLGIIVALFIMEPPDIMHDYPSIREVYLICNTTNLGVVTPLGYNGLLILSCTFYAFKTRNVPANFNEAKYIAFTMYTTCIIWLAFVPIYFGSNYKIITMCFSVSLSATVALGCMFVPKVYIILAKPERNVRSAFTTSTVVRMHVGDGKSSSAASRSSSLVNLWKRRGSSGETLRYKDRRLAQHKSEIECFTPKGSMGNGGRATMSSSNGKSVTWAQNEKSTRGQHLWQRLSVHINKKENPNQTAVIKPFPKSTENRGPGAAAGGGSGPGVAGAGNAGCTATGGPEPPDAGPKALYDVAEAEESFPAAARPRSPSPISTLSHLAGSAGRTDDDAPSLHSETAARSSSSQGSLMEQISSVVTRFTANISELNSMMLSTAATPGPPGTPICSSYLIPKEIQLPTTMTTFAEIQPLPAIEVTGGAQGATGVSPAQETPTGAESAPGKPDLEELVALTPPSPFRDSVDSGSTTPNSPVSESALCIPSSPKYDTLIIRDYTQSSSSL
row,Compound,IC50 [µM]
1,Cc1cc(OC2CCC2)cc(C(=O)Nc2ccccn2)n1,0.043
2,Cc1cc(OC2CCC2)cc(C(=O)Nc2nc(C)cs2)n1,0.059 ± 0.007
3,Cc1cc(OC2COC2)cc(C(=O)Nc2ccc(F)cn2)n1,0.212 ± 0.008
4,Cc1cc(OC2CCCC2)cc(C(=O)Nc2ccc(F)cn2)n1,3.66
5,Cc1cc(O[C@@H]2CCOC2)cc(C(=O)Nc2ccccn2)n1,0.023
6,Cc1cc(O[C@@H]2CCOC2)cc(C(=O)Nc2nc(C)cs2)n1,0.042 ± 0.009
7,Cc1cc(O[C@H]2CCOC2)cc(C(=O)Nc2ccccn2)n1,0.194
8,Cc1cc(O[C@H]2CCOC2)cc(C(=O)Nc2ccc(F)cn2)n1,0.685 ± 0.051
9,Cc1cc(O[C@H]2CCOC2)cc(C(=O)Nc2nc(C)cs2)n1,0.133 ± 0.014
10,Cc1cc(OC2CCCCC2)cc(C(=O)Nc2ccc(F)cn2)n1,3.35
11,Cc1cc(OC2CCCOC2)cc(C(=O)Nc2ccccn2)n1 (stereo not drawn),0.224
12,Cc1cc(OC2CCCOC2)cc(C(=O)Nc2nc(C)cs2)n1 (stereo not drawn),0.14
13,Cc1cc(O[C@@H]2CCCOC2)cc(C(=O)Nc2ccc(F)cn2)n1,0.353 ± 0.083
14,Cc1cc(O[C@H]2CCCOC2)cc(C(=O)Nc2ccccn2)n1,0.075
15,Cc1cc(OC2CCCCC2)cc(C(=O)Nc2ccccn2)n1,1.42
16,Cc1cc(OC2CCCCC2)cc(C(=O)Nc2nc(C)cs2)n1,2.1
17,Cc1cc(OC2CCCOC2)cc(C(=O)Nc2ccc(F)cn2)n1 (stereo not drawn),0.497
18,Cc1cc(O[C@@H]2CCCOC2)cc(C(=O)Nc2ccccn2)n1,0.101
19,Cc1cc(O[C@@H]2CCCOC2)cc(C(=O)Nc2nc(C)cs2)n1,0.07 ± 0.011
20,Cc1cc(O[C@H]2CCCOC2)cc(C(=O)Nc2ccc(F)cn2)n1,0.264 ± 0.047
21,Cc1cc(O[C@H]2CCCOC2)cc(C(=O)Nc2nc(C)cs2)n1,0.091 ± 0.003
22,Cc1cc(OC2CCOCC2)cc(C(=O)Nc2ccccn2)n1,1.56
23,Cc1cc(OCC2CCO2)cc(C(=O)Nc2ccccn2)n1 (stereo not drawn),0.646

row,Compound,IC50 [µM]
1,Cc1cc(OCC2CCO2)cc(C(=O)Nc2nc(C)cs2)n1 (stereo not drawn),0.399
2,Cc1cc(OCC2COC2)cc(C(=O)Nc2ccc(F)cn2)n1,4.3
3,Cc1cc(OCC2CCCO2)cc(C(=O)Nc2ccccn2)n1 (stereo not drawn),0.725
4,Cc1cc(OCC2CCCO2)cc(C(=O)Nc2nc(C)cs2)n1 (stereo not drawn),0.273
5,Cc1cc(OC2CCOCC2)cc(C(=O)Nc2nc(C)cs2)n1,0.446
6,Cc1cc(OCC2CCO2)cc(C(=O)Nc2ccc(F)cn2)n1 (stereo not drawn),2.48
7,Cc1cc(OCC2COC2)cc(C(=O)Nc2ccccn2)n1,0.392
8,Cc1cc(OCC2COC2)cc(C(=O)Nc2nc(C)cs2)n1,0.143 ± 0.032
9,Cc1cc(OCC2CCCO2)cc(C(=O)Nc2ccc(F)cn2)n1 (stereo not drawn),2.33
10,Cc1cc(OCC2CCOC2)cc(C(=O)Nc2ccccn2)n1 (stereo not drawn),0.21
11,Cc1cc(OCC2CCOC2)cc(C(=O)Nc2ccc(F)cn2)n1 (stereo not drawn),0.701
12,Cc1cc(OCC2CCOC2)cc(C(=O)Nc2nc(C)cs2)n1 (stereo not drawn),0.2
13,Cc1cc(OC[C@@H]2CCOC2)cc(C(=O)Nc2ccccn2)n1,0.166
14,Cc1cc(OC[C@@H]2CCOC2)cc(C(=O)Nc2nc(C)cs2)n1,0.151 ± 0.038
15,Cc1cc(OC[C@H]2CCOC2)cc(C(=O)Nc2ccc(F)cn2)n1,4.89
16,COCCOc1cc(C)nc(C(=O)Nc2ccccn2)c1,0.12
17,COCCOc1cc(C)nc(C(=O)Nc2nc(C)cs2)c1,0.082 ± 0.012
18,Cc1cc(OC2COC2)cc(C(=O)Nc2cccc(F)n2)n1,0.201
19,Cc1cc(O[C@H]2CO[C@H](C)C2)cc(C(=O)Nc2nc(C)c(F)s2)n1,1.29
20,Cc1cc(OC2CSC2)cc(C(=O)Nc2nc(C)cs2)n1,0.031
21,Cc1cc(OC2C[S+]([O-])C2)cc(C(=O)Nc2nc(C)cs2)n1 (stereo not drawn),0.18
22,Cc1cc(OC2CS(=O)(=O)C2)cc(C(=O)Nc2nc(C)cs2)n1,0.392
23,CCC(=O)N1CC(Oc2cc(C)nc(C(=O)Nc3nc(C)cs3)c2)C1,0.611

row,Compound,IC50 [µM]
1,CCC(=O)N1CC(Oc2cc(C)nc(C(=O)Nc3ccc(F)cn3)c2)C1,3.4
2,Cc1cc(OC2CN(C(=O)CC(C)C)C2)cc(C(=O)Nc2ccc(F)cn2)n1,4.33
3,CCOC(=O)N1CC(Oc2cc(C)nc(C(=O)Nc3nc(C)cs3)c2)C1,0.862
4,COC(=O)N1CC(Oc2cc(C)nc(C(=O)Nc3ccc(F)cn3)c2)C1,1.57
5,Cc1cc(OC2CN(C(=O)OC(C)C)C2)cc(C(=O)Nc2ccc(F)cn2)n1,4.1
6,CCCCOC(=O)N1CC(Oc2cc(C)nc(C(=O)Nc3ccc(F)cn3)c2)C1,11.2
7,Cc1cc(OC2CN(S(C)(=O)=O)C2)cc(C(=O)Nc2nc(C)cs2)n1,0.504
8,COC(=O)N1CC(Oc2cc(C)nc(C(=O)Nc3nc(C)cs3)c2)C1,0.686
9,Cc1cc(OC2CN(C(=O)OC(C)C)C2)cc(C(=O)Nc2nc(C)cs2)n1,2.51
10,CCOC(=O)N1CC(Oc2cc(C)nc(C(=O)Nc3ccc(F)cn3)c2)C1,3.34
11,CCCOC(=O)N1CC(Oc2cc(C)nc(C(=O)Nc3ccc(F)cn3)c2)C1,> 10
12,Cc1cc(OC2CN(C(=O)OCC(C)C)C2)cc(C(=O)Nc2ccc(F)cn2)n1,> 30
13,CCS(=O)(=O)N1CC(Oc2cc(C)nc(C(=O)Nc3nc(C)cs3)c2)C1,1.27
14,CCCS(=O)(=O)N1CC(Oc2cc(C)nc(C(=O)Nc3nc(C)cs3)c2)C1,0.789
15,Cc1cc(OC2CN(S(=O)(=O)CC(C)C)C2)cc(C(=O)Nc2nc(C)cs2)n1,> 10
16,CCCS(=O)(=O)N1CC(Oc2cc(C)nc(C(=O)Nc3ccc(F)cn3)c2)C1,> 10
17,Cc1cc(OC2CN(S(=O)(=O)CC(C)C)C2)cc(C(=O)Nc2ccc(F)cn2)n1,> 30
18,Cc1cc(OC2CN(C(=O)N(C)C)C2)cc(C(=O)Nc2ccc(F)cn2)n1,> 10
19,Cc1cc(OC2CN(S(=O)(=O)C(C)C)C2)cc(C(=O)Nc2nc(C)cs2)n1,3.62
20,CCS(=O)(=O)N1CC(Oc2cc(C)nc(C(=O)Nc3ccc(F)cn3)c2)C1,> 10
21,Cc1cc(OC2CN(S(=O)(=O)C(C)C)C2)cc(C(=O)Nc2ccc(F)cn2)n1,3.98
22,Cc1cc(OC2CN(C(=O)N(C)C)C2)cc(C(=O)Nc2nc(C)cs2)n1,> 10

# Same assay, conditions: rat mGluR5; CRC plateaus above 10% Glu Max
row,Compound,NAM designation
1,Cc1cc(OC2CN(C(=O)OC(C)C)C2)cc(C(=O)Nc2ccc(F)cn2)n1,Partial NAM
2,Cc1cc(OC2CN(S(=O)(=O)C(C)C)C2)cc(C(=O)Nc2ccc(F)cn2)n1,Partial NAM

# Same assay, conditions: rat mGluR5; average Glu Max at 30 μM; CRC does not hit a plateau
row,Compound,% Glu Max at single concentration [%]
1,CCCOC(=O)N1CC(Oc2cc(C)nc(C(=O)Nc3ccc(F)cn3)c2)C1,37
2,Cc1cc(OC2CN(S(=O)(=O)CC(C)C)C2)cc(C(=O)Nc2nc(C)cs2)n1,59
3,CCCS(=O)(=O)N1CC(Oc2cc(C)nc(C(=O)Nc3ccc(F)cn3)c2)C1,53
4,Cc1cc(OC2CN(C(=O)N(C)C)C2)cc(C(=O)Nc2ccc(F)cn2)n1,69
5,CCS(=O)(=O)N1CC(Oc2cc(C)nc(C(=O)Nc3ccc(F)cn3)c2)C1,62
6,Cc1cc(OC2CN(C(=O)N(C)C)C2)cc(C(=O)Nc2nc(C)cs2)n1,31

# Same assay, conditions: rat mGluR5; response in presence of compound as percentage of maximal glutamate response; CRC plateaus above 10%
row,Compound,"% Glu Max (partial NAM, plateau of CRC) [%]"
1,Cc1cc(OC2CN(C(=O)OC(C)C)C2)cc(C(=O)Nc2ccc(F)cn2)n1,42
2,Cc1cc(OC2CN(S(=O)(=O)C(C)C)C2)cc(C(=O)Nc2ccc(F)cn2)n1,58
